The NIST ThermoML archive (doi:10.1021/je060411g)
Numbers after ± are expanded uncertainties.

Assays:
[1] = Molar enthalpy of transition or fusion

Molar enthalpy of transition or fusion ([1]; Crystal 1) [kcal/mol]	Molar enthalpy of transition or fusion ([1]; Crystal 2) [kcal/mol]	Glass transition temperature (Adiabatic calorimetry) [°C]	Triple point temperature (Crystal) [K]	Glass transition temperature [°C]	SMILES	Triple point temperature (Crystal 1) [K]	Triple point temperature (Crystal 2) [K]	Triple point temperature (Crystal 3) [K]	Molar enthalpy of transition or fusion ([1]; Crystal 3) [kcal/mol]
0.693 ± 0.0478	0.98 ± 0.0478	–	–	–	CC(C)(C)CO [2,2-dimethyl-1-propanol]	328.2 ± 0.4	233.3 ± 1	–	–
–	–	-155 ± 5	–	–	CCC(C)CO (stereo not drawn) [2-methyl-1-butanol]	–	–	–	–
0.397 ± 0.0478	–	–	203.2 ± 0.4	-143 ± 5	CCC(O)CC [3-pentanol]	–	–	–	–

SMILES	Molar enthalpy of transition or fusion ([1]; Crystal 1) [kcal/mol]	Molar enthalpy of transition or fusion ([1]; Crystal 2) [kcal/mol]	Glass transition temperature (Adiabatic calorimetry) [°C]	Triple point temperature (Crystal) [K]	Glass transition temperature [°C]	Triple point temperature (Crystal 1) [K]	Triple point temperature (Crystal 2) [K]	Triple point temperature (Crystal 3) [K]	Molar enthalpy of transition or fusion ([1]; Crystal 3) [kcal/mol]
CCC(C)(C)O [2-methylbutan-2-ol]	0.478 ± 0.0478	–	–	–	–	264.7 ± 0.4	215 ± 1	145.8 ± 0.4	0.215 ± 0.0239
